Measured values: US10472341B2, “Bicyclic tetrahydrothiazepine derivatives useful for the treatment of neoplastic and/or infectious diseases” (APEIRON BIOLOGICS AG, priority 2015, dated 2019)

How the values were obtained:
non-stimulated PBMCs = test: Non-stimulated PBMCs: cytokine secretion and signs of T-cell activation; type: cell-based, human
Text: This is an important finding for compounds that shall selectively act on T cells which have been activated by presence of antigen from pathogens or tumors, but shall not lead to an unwanted general activation of all T cells of a patient.

[1] = tested on: aCD3/aCD28-stimulated human CD4+-T-cells; test: IL-2 production and activation markers in aCD3/aCD28 stimulated isolated human CD4+-T-cells; type: cell-based; conditions: IL-2 production at 3 μM compound
How it was run: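 CD4+ T cells isolated from buffy-coat PBMCs by microbeads were plated in Xvivo medium (1.5*10^5 cells/well) and stimulated with anti-CD3/28 mAbs plus compound. IL-2 measured by ELISA in supernatants at 24 h or 48 h; CD25 and proliferation by flow cytometry, CD69 at 24 h. Activity classes based on IL-2 at 3 μM compound.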

[2] = tested on: PBMCs & tumor cell lines (K562, Panc1, BxPc3, HT-29, A549, HTB46, HTB47, A375, M21, SKBR3, CRL2505); test: PBMCs alone or in co-culture with tumor cells of diverse origin: cytokines and granzyme; type: cell-based, human; conditions: for Granzyme / IFN-gamma / IL-2: 3 μM
Procedure: Isolated PBMCs, NK cells or CD8 positive cells were plated in Xvivo medium at 1.5*10^5 cells per in 96 well culture plates in the presence of 0.3*10^4 tumor cells where indicated. Cytokine secretion was determined by ELISA, immune cell activation (using Beckman-Coulter Abs CD25-PC5, CD69-PC7), cell viability and numbers by flow cytometry (Beckman-Coulter FC500 or Gallios) using 7-AAD exclusion as criterion for living cells. The tumor cell lines M21 and K562 represent two widely used tumor lines of melanoma and leukemia origin, respectively. However, tumor cells are known to employ different mechanisms to suppress immune functions, therefore it was investigated if the effects of compounds on immune cell activities against tumor cells can be generalized to a wide array of tumor cells of very diverse origins from different types of tumors. PBMCs were isolated and incubated with and without compounds, either alone or in co-culture with different tumor cells.

[3] = tested on: immune cells & anti-GD2-antibodies bound on M21 melanoma cells; test: Immune cells stimulated by anti-GD2-antibody bound on M21 melanoma cells: TNF-alpha, activated NK cells; type: cell-based, human
Procedure: Isolated PBMCs, NK cells or CD8 positive cells were plated in Xvivo medium at 1.5*10^5 cells per in 96 well culture plates in the presence of 0.3*10^4 tumor cells where indicated. Cytokine secretion was determined by ELISA, immune cell activation (using Beckman-Coulter Abs CD25-PC5, CD69-PC7), cell viability and numbers by flow cytometry (Beckman-Coulter FC500 or Gallios) using 7-AAD exclusion as criterion for living cells. […] Antibodies that are bound to pathogens or pathogen-infected cells trigger activation of immune cells via Fc-receptors, that are expressed particularly on NK cells and myeloid cells. This mechanism is also utilized for cancer therapies when therapeutic antibodies against antigens which are preferentially expressed on cancer cells are administrated to patients which in turn recruit and activate immune cells to directly attack cancer cells. The GD2-antigen is strongly expressed on cancer cells of particular origins (among neuroblastoma and melanoma) and is therefore developed clinically as anti-cancer therapy. For M21 melanoma cells, GD2 is the only antigen that has been characterized to be accessible as tumor antigen. Therefore, an anti-GD2-antibody that was available in clinically grade quality was employed to test whether compounds can enhance the Fc-receptor mediated activation of immune cells to tumor-cell bound therapeutic antibodies.

[4] = PBMC & M21 tumor cells & anti-GD2 Ab high concentration, 0.3 μM
[5] = PBMC & M21 tumor cells & anti-GD2 Ab high concentration, 1 μM
[6] = PBMC & M21 tumor cells & anti-GD2 Ab high concentration, 3 μM
[7] = PBMC & M21 tumor cells & anti-GD2 Ab high concentration, 10 μM
[8] = PBMC & M21 tumor cells & anti-GD2 Ab low concentration, 0.3 μM
[9] = PBMC & M21 tumor cells & anti-GD2 Ab low concentration, 1 μM
[10] = PBMC & M21 tumor cells & anti-GD2 Ab low concentration, 3 μM
[11] = PBMC & M21 tumor cells & anti-GD2 Ab low concentration, 10 μM
[12] = PBMC & M21 tumor cells only, 0.3 μM
[13] = PBMC & M21 tumor cells only, 1 μM
[14] = PBMC & M21 tumor cells only, 3 μM
[15] = PBMC & M21 tumor cells only, 10 μM

Cl.N[C@H]1CSc2cc(F)c(C(=O)NCCCC(F)(F)F)cc2N(Cc2ccc(Cl)cc2)C1=O [Example 40, (3R)-3-amino-5-[(4-chlorophenyl)methyl]-8-fluoro-4-oxo-N-(4,4,4-trifluorobutyl)-2,3,4,5-tetrahydro-1,5-benzothiazepine-7-carboxamide hydrochloride] was tested, and the “cytokine secretion or other signs of T-cell activation” value (non-stimulated PBMCs) was “did not enhance cytokine secretion or other signs of T-cell activation”, the “Activity Class CD4+” value [1] was “B (IL-2 production at 3 μM compound concentration between 2-10 ng/mL)” and the Granzyme ([2]; PBMC & A375) was 0.053 ng/mL. It also gave an IFN-gamma ([2]; PBMC & A375) of 0.142 ng/mL, an IL-2 ([2]; PBMC & A375) of 0.278 ng/mL and a Granzyme ([2]; PBMC & A549) of 0.020 ng/mL. It also gave an IFN-gamma ([2]; PBMC & A549) of 0.214 ng/mL, an IL-2 ([2]; PBMC & A549) of 0.018 ng/mL and a Granzyme ([2]; PBMC & BxPc3) of 0.008 ng/mL. The IFN-gamma ([2]; PBMC & BxPc3) was 0.088 ng/mL, the IL-2 ([2]; PBMC & BxPc3) was 0.092 ng/mL and the Granzyme ([2]; PBMC & CRL2505) was 0.780 ng/mL. For the same compound, the IFN-gamma ([2]; PBMC & CRL2505) was 0.663 ng/mL, the IL-2 ([2]; PBMC & CRL2505) was 0.012 ng/mL and the Granzyme ([2]; PBMC & HT-29) was 0.003 ng/mL. It also gave an IFN-gamma ([2]; PBMC & HT-29) of 0.022 ng/mL, an IL-2 ([2]; PBMC & HT-29) of 0.033 ng/mL and a Granzyme ([2]; PBMC & HTB46) of 0.404 ng/mL. It also gave an IFN-gamma ([2]; PBMC & HTB46) of 0.665 ng/mL, an IL-2 ([2]; PBMC & HTB46) of 0.168 ng/mL and a Granzyme ([2]; PBMC & HTB47) of 0.072 ng/mL. For the same compound, the IFN-gamma ([2]; PBMC & HTB47) was 0.277 ng/mL, the IL-2 ([2]; PBMC & HTB47) was 0.075 ng/mL and the Granzyme ([2]; PBMC & K562) was 0.011 ng/mL. It also gave an IFN-gamma ([2]; PBMC & K562) of 0.000 ng/mL, an IL-2 ([2]; PBMC & K562) of 0.000 ng/mL and a Granzyme ([2]; PBMC & M21) of 0.001 ng/mL. The IFN-gamma ([2]; PBMC & M21) was 0.000 ng/mL, the IL-2 ([2]; PBMC & M21) was 0.037 ng/mL and the Granzyme ([2]; PBMC & Panc1) was 0.005 ng/mL. The IFN-gamma ([2]; PBMC & Panc1) was 0.000 ng/mL, the IL-2 ([2]; PBMC & Panc1) was 0.013 ng/mL and the Granzyme ([2]; PBMC & SKBR3) was 0.001 ng/mL. For the same compound, the IFN-gamma ([2]; PBMC & SKBR3) was 0.000 ng/mL, the IL-2 ([2]; PBMC & SKBR3) was 0.005 ng/mL and the Granzyme ([2]; PBMC only) was 0.001 ng/mL. For the same compound, the IFN-gamma ([2]; PBMC only) was 0.000 ng/mL, the IL-2 ([2]; PBMC only) was 0.000 ng/mL and the “secretion of cytokines (IL-2, IFN-gamma) and granzyme” value ([2]; PBMCs in co-culture with diverse tumor cell lines) was “enhanced secretion of cytokines and granzyme strongly specifically upon tumor cell contact in diverse tumor cell lines”. The “enhancement of cytokine and granzyme secretion” value ([2]; PBMCs in the absence of tumor cells) was “such effect was not detected in the absence of tumor cells”, the TNF-alpha [3, 4] was 106.30 pg/mL and the “strongly activated NK cells” value [3, 4] was 23.55 % CD25+CD69+. For the same compound, the TNF-alpha [3, 5] was 142.98 pg/mL, the “strongly activated NK cells” value [3, 5] was 32.63 % CD25+CD69+ and the TNF-alpha [3, 6] was 192.34 pg/mL. The “strongly activated NK cells” value [3, 6] was 42.50 % CD25+CD69+, the TNF-alpha [3, 7] was 257.96 pg/mL and the “strongly activated NK cells” value [3, 7] was 42.22 % CD25+CD69+. The TNF-alpha [3, 8] was 36.53 pg/mL, the “strongly activated NK cells” value [3, 8] was 6.92 % CD25+CD69+ and the TNF-alpha [3, 9] was 55.72 pg/mL. For the same compound, the “strongly activated NK cells” value [3, 9] was 11.88 % CD25+CD69+, the TNF-alpha [3, 10] was 93.25 pg/mL and the “strongly activated NK cells” value [3, 10] was 17.22 % CD25+CD69+. For the same compound, the TNF-alpha [3, 11] was 114.88 pg/mL, the “strongly activated NK cells” value [3, 11] was 20.25 % CD25+CD69+ and the TNF-alpha [3, 12] was 17.47 pg/mL. The “strongly activated NK cells” value [3, 12] was 0.75 % CD25+CD69+, the TNF-alpha [3, 13] was 17.59 pg/mL and the “strongly activated NK cells” value [3, 13] was 1.10 % CD25+CD69+. The TNF-alpha [3, 14] was 28.95 pg/mL, the “strongly activated NK cells” value [3, 14] was 2.40 % CD25+CD69+ and the TNF-alpha [3, 15] was 38.00 pg/mL. For the same compound, the “strongly activated NK cells” value [3, 15] was 2.19 % CD25+CD69+ and the “reactivity of immune cells to anti-GD2-antibodies bound on M21 melanoma cells” value ([3]; cytokine secretion, NK cell activation) was “enhanced reactivity of immune cells to anti-GD2-antibodies bound on M21 melanoma cells, resulting in increased secretion of cytokine and activation of NK cells”.
